Laboratory results published in patent publication US9560852B2, “Combinations of biological control agents and insecticides or fungicides” (Bayer Intellectual Property GmbH, priority 2008, dated 2017).

Assays:
Type in all cases: in vivo
Soybean Cyst nematodes = assay: Soybean seed treatment in soil infested with Soybean Cyst nematodes, height and WinRhizo root system analysis
Text: (§1) Soybeans (Variety-S2743-4RR) were planted with a base fungicide package and imidacloprid (sold under the trademark GAUCHO 600@62.5 gm AI/100 kg), a biological nematicide, or a combination of both. The seed were then planted in standard soil and soil infested with Soybean Cyst nematodes. Plants were harvested 28 days later (˜50 plants/treatment/soil type) and compared by height and by a WinRhizo® root system analysis (length, surface area, volume, tips, forks, and crossings (T/F/C))
(§2) The final column of Table 2 compares the total average percent difference in each of the treatments with soybean cyst nematode pressure. The plants with the insecticide alone fared the worst with stunted growth both above and below the soil and a total average reduction of 53%. […] The best overall treatment contained both the biological nematicide and the insecticide and there was only an 8% difference in overall plant development.

[1] = as above; settings: SCN-infested soil versus standard soil, same treatment
Text: as §1, §2

[2] = test system: Soybeans (Variety-S2743-4RR); assay: Soybean seed treatment in standard soil, height and WinRhizo root system analysis; settings: 28 days
Text: as §1

cotton seed = assay: Root system enhancement by neonicotinoid seed treatment, WinRhizo root analysis; settings: 28 days after planting, fungicide base plus insecticide seed treatment
Description: In this experiment cotton seed was treated with a fungicide base and one of three commonly used neonicotinoid insecticides: imidacloprid (sold under the trademark GAUCHO 600@0.375 mg ai/seed), clothianidin (sold under the trademark PONCHO 600@0.375 mg ai/seed), and thiomethoxam (sold under the trademark CRUISER@0.34 mg ai/seed).
Fifty seeds from each of the four treatments were planted. […] Seedlings were harvested 28 days after planting and analyzed using the WinRhizo® root analysis system. There was no significant difference in germination.
In Table 1, a comparison of Length, Surface Area, Volume, and Tips/Forks/Crossings, was made through the analysis of 40-45 plants per treatment and by averaging 10 repetitions bracketing the median for each category.

[3] = soil infested with Soybean Cyst nematodes (SCN), 28 days

Row | Compound | direct nematicidal activity (Soybean Cyst nematodes; insecticide alone) | Height (Soybean Cyst nematodes; [3]) [cm] | Length (Soybean Cyst nematodes; [3]) [cm] | SurfArea (Soybean Cyst nematodes; [3]) [cm^2] | T/F/C (Soybean Cyst nematodes; [3]) | Volume (Soybean Cyst nematodes; [3]) [cm^3] | % difference (total average percent difference with soybean cyst nematode pressure) ([1]; listed as NI) [%] | % difference (total average percent difference with soybean cyst nematode pressure) ([1]; listed as insecticide) [%] | Height [2] [cm] | Length [2] [cm] | SurfArea [2] [cm^2] | T/F/C [2] | Volume [2] [cm^3] | Length (cotton seed) [a cm] | SurfArea (cotton seed) [a cm^2] | T/F/C (Tips/Forks/Crossings) (cotton seed) [a] | Volume (cotton seed) [a cm^3]
1 | O=[N+]([O-])NC1=NCCN1Cc1ccc(Cl)nc1 [Imidacloprid, imidacloprid] | no direct nematicidal activity | 19.09 | 167.41 | 44.51 | 283.90 | 0.97 | 52.52 | 53 | 26.78 | 281.93 | 66.40 | 497.68 | 1.25 | 92.56 | 20.11 | 85.60 | 0.35
2 | CN/C(=N\[N+](=O)[O-])NCc1cnc(Cl)s1 [Clothianidin, clothianidin] | – | – | – | – | – | – | – | – | – | – | – | – | – | 88.11 | 16.77 | 93.93 | 0.29
3 | CN1COCN(Cc2cnc(Cl)s2)/C1=N\[N+](=O)[O-] [Thiomethoxam, thiomethoxam] | – | – | – | – | – | – | – | – | – | – | – | – | – | 95.01 | 17.43 | 77.17 | 0.28
